Measured values taken from patent publication US11584735B2, “Solid forms of a plasma kallikrein inhibitor and salts thereof” (KALVISTA PHARMACEUTICALS LIMITED, priority 2017, dated 2023).
Values belong to the compound of their own block, whether it stands above or below them.

Tests used:
trypsin = assay: Enzyme selectivity: trypsin; format: biochemical, human; settings: substrate at Km concentration
Procedure: (§1) Human serine protease enzymes plasmin, thrombin and trypsin were assayed for enzymatic activity using an appropriate fluorogenic substrate. Protease activity was measured by monitoring the accumulation of liberated fluorescence from the substrate over 5 minutes. The linear rate of fluorescence increase per minute was expressed as percentage (%) activity. The Km for the cleavage of each substrate was determined by standard transformation of the Michaelis-Menten equation.

Human Factor XIIa = Human Factor XIIa (Homo sapiens (Human), UniProt P00748); assay: Determination of the IC50 for FXIIa; format: biochemical; settings: 25° C., substrate H-DPro-Phe-Arg-AFC
Procedure: Factor XIIa inhibitory activity in vitro was determined using standard published methods (see e.g. Shori et al., Biochem. Pharmacol., 1992, 43, 1209; Baeriswyl et al., ACS Chem. Biol., 2015, 10 (8) 1861; Bouckaert et al., European Journal of Medicinal Chemistry 110 (2016) 181). Human Factor XIIa (Enzyme Research Laboratories) was incubated at 25° C. with the fluorogenic substrate H-DPro-Phe-Arg-AFC and various concentrations of the test compound. Residual enzyme activity (initial rate of reaction) was determined by measuring the […] and the IC50 value for the test compound was determined.

Human KLK1 = Human KLK1 (Homo sapiens (Human), UniProt P06870); assay: Determination of the IC50 for KLK1; format: biochemical; settings: 25° C., substrate H-DVal-Leu-Arg-AFC
Procedure: KLK1 inhibitory activity in vitro was determined using standard published methods (see e.g. Johansen et al., Int. J. Tiss. Reac. 1986, 8, 185; Shori et al., Biochem. Pharmacol., 1992, 43, 1209; Sturzebecher et al., Biol. Chem. Hoppe-Seyler, 1992, 373, 1025). Human KLK1 (Callbiochem) was incubated at 25° C. with the fluorogenic substrate H-DVal-Leu-Arg-AFC and various concentrations of the test compound. Residual enzyme activity (initial rate of reaction) was determined by measuring the change in optical absorbance at 410 nm and the IC50 value for the test compound was determined.

thrombin = thrombin (Homo sapiens (Human), UniProt P00734); settings: read-out: IC50 Thrombin; substrate at Km concentration
Procedure: as §1

plasmin = plasmin (Homo sapiens (Human), UniProt P00747); settings: read-out: IC50 Plasmin; substrate at Km concentration
Procedure: as §1

Human FXIa = Human FXIa (Homo sapiens (Human), UniProt P03951); assay: Determination of the % inhibition / IC50 for FXIa; format: biochemical; settings: 25° C., substrate Z-Gly-Pro-Arg-AFC
[1] = Metabolic stability in human liver microsomes; format: in vitro ADME; settings: human liver microsomes 1 mg/mL, 5 μM test compound, 37° C.
Procedure: The metabolic stability was determined using standard published methods (Obach RS (1999) Drug Metab Dispos 27(11); 1350-135). Human liver microsomes (1 mg/mL; Corning) were incubated with 5 μM test compound at 37° C. on a shaking platform (150 rpm). Samples were taken at 0 and 60 min. The percentage test compound remaining at 60 minutes was determined by ratio of LCMS peak areas.

[2] = tested on: LPS-induced disseminated intravascular coagulation; settings: cited from earlier work
[3] = In vitro permeability, Caco-2 model; format: in vitro ADME; settings: human, apical to basolateral, 37° C.
Procedure: In vitro permeability was determined using the Caco-2 model for oral absorption. The methodology was adapted from standard published methods (Wang Z, Hop C. E., Leung K. H. and Pang J. (2000) J Mass Spectrom 35(1); 71-76). The Caco-2 monolayers were established in a Biocoat™ HTS fibrillar collagen 24 well multiwell insert system (1.0 μm, PET membrane, Corning 354803) in which 200,000 cells were seeded into each insert and maintained over 3 days before being utilised in the permeability assay. For the assay, 50 μM test compound is added to the apical side of the inserts and incubated for 1 hour at 37° C. on a shaking platform (120 rpm). Apical to basolateral transport was determined by measuring the test article in both compartments by LCMS following the 1 hour incubation. The integrity of the Caco-2 monolayers was confirmed by two methods, (i) comparison of pre- and post-experiment transepithelial electrical resistance (TEER) and, (ii) assessment of Lucifer Yellow flux.

rats = settings: systemic administration; cited from earlier work
diabetic rats = settings: cited from earlier work
[4] = tested on: intrinsic pathway of coagulation; settings: in vitro; cited from earlier work
blood = settings: contacting blood with the inhibitor; cited from earlier work

Human FXIa, sequence (P03951 388-625): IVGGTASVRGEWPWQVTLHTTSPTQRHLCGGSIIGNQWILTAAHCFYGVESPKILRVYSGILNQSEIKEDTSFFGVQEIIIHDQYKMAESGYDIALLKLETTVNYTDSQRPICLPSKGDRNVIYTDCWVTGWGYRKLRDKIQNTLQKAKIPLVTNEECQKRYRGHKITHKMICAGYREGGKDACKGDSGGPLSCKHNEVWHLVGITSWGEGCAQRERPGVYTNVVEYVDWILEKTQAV
Human FXIa, sequence (P03951 19-387 partner): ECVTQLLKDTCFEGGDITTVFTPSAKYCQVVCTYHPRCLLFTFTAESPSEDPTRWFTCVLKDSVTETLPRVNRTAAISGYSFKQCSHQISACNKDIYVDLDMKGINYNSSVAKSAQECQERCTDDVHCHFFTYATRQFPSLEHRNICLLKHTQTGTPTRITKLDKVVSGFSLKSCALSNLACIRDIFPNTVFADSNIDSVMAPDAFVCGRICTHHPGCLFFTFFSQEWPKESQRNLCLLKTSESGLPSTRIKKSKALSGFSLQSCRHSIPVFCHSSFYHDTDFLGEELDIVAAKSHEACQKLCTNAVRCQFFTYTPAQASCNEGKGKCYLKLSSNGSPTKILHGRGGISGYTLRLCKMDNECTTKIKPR
Human Factor XIIa, sequence (P00748 373-615): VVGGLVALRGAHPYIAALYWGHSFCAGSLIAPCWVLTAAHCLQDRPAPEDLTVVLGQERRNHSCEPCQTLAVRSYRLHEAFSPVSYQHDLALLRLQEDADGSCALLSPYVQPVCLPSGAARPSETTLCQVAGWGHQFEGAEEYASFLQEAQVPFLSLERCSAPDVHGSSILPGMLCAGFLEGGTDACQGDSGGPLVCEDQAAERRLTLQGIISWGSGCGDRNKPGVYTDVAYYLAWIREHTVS
Human KLK1, sequence (P06870 25-262): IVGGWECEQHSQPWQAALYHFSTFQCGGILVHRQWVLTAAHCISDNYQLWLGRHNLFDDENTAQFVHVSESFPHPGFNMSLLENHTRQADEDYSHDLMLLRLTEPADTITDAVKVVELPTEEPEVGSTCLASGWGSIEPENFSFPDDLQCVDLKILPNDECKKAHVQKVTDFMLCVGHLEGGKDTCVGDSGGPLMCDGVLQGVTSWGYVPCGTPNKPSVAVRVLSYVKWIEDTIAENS
plasmin, sequence (P00747 581-810): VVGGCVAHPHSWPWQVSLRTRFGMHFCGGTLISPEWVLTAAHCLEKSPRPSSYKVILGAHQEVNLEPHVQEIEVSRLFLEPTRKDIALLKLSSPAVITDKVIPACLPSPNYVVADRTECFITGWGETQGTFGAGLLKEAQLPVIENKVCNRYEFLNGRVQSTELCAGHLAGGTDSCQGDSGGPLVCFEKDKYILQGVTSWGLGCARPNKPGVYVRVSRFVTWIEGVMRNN
plasmin, sequence (P00747 97-580 partner): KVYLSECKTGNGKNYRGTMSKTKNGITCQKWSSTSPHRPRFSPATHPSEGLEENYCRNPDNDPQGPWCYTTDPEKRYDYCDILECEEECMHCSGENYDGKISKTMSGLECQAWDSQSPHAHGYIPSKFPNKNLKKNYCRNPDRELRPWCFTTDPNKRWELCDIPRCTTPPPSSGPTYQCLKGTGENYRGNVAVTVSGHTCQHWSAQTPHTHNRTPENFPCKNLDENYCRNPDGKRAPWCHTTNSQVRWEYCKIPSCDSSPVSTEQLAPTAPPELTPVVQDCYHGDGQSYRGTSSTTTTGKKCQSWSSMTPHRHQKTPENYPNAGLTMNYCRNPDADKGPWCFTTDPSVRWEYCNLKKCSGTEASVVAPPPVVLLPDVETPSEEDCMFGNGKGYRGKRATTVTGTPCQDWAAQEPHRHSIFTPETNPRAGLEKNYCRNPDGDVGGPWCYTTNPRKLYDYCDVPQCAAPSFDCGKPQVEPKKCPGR

IC50 (trypsin): > 40 µM | IC50 (Human Factor XIIa): > 40 µM | IC50 (Human KLK1): > 40 µM | IC50 (thrombin): > 40 µM | IC50 (plasmin): > 40 µM | IC50 (Human FXIa): > 40 µM | % remaining at 60 minutes [1]: 25%
Compound: COCc1nn(Cc2ccc(Cn3cc(F)ccc3=O)cc2)cc1C(=O)NCc1nccc(OC)c1F [Compound of Formula A, 1-({4-[(5-fluoro-2-oxopyridin-1-yl)methyl]phenyl}methyl)-N-[(3-fluoro-4-methoxypyridin-2-yl)methyl]-3-(methoxymethyl)pyrazole-4-carboxamide]

Compound: Cl.NCC1CCC(C(=O)N[C@@H](Cc2ccccc2)C(=O)Nc2ccc(CC(=O)O)cc2)CC1 (stereo partly shown) [PKSI-527]
Effect on platelet count, fibrinogen level and FDP level [2]: significantly suppressed the decrease in platelet count and fibrinogen level as well as the increase in FDP level

Papp at 1 h, 50 μM [3]: 9 ×10⁻⁶ cm/s | IC50 (Human Factor XIIa): > 40 µM | IC50 (Human KLK1): > 40 µM | IC50 (Human FXIa): > 40 µM
Compound: COCc1nn(Cc2ccc(Cn3ccccc3=O)cc2)cc1C(=O)NCc1nccc(OC)c1F [Example 41 of WO2016/083820, N-[(3-fluoro-4-methoxypyridin-2-yl)methyl]-3-(methoxymethyl)-1-({4-[(2-oxopyridin-1-yl)methyl]phenyl}methyl)pyrazole-4-carboxamide]

Compound: N=C(N)c1ccc(CNC(=O)c2cnn(Cc3ccccc3)c2)cc1 [ASP-440]
Hematoma expansion (rats): reduced hematoma expansion | Effect on retinal vascular permeability and retinal blood flow abnormalities (diabetic rats): ameliorated both retinal vascular permeability and retinal blood flow abnormalities

Compound: Ecallantide
Contact activated induced coagulation [4]: delay contact activated induced coagulation | Activated clotting time (ACT) (blood): increase in activated clotting time
